Experimental findings from patent US9164102B2, “Methods of screening for TRPM4b modulators” (The Queen's Medical Center, priority 2002, dated 2015) are described below.

In the assay the target is T1, TRPM4b (Homo sapiens, UniProt Q8TD43).
T1 construct: expressed in transfected cells
As to the kind of experiment: Patch-clamp recordings of TRPM4b currents in HEK-293 cells at buffered intracellular Ca2+. Format: cell-based. The note with it: cytosolic/intracellular Ca2+. The protocol: Wild type and tetracycline-inducible […] Flag-TRPM4b-expressing cells were cultured at 37° C./5% CO2 in DMEM supplemented with 10% FBS and 2 mM glutamine. The medium was supplemented with blasticidin (5 μg/ml; Invitrogen) and zeocin (0.4 mg/ml; Invitrogen). Cells were resuspended in media containing 1 μg/ml tetracycline (Invitrogen) 24 hours before experiments. For patch-clamp experiments, cells were kept in a standard Ringer's solution (in mM): NaCl 145, KCl 2.8, CaCl2 1, MgCl2 2, glucose 10, Hepes.NaOH 10, pH 7.2. In some experiments, this solution was modified such that all but 1 mM of NaCl was replaced by choline-Cl (choline-based solution). In experiments where ATP was used, it was added at 1 mM of the Mg^2+ salt and extracellular Ca^2+ concentration was raised to 2 mM. The standard pipette-filling solutions contained (in mM): K-glutamate 145, NaCl 8, MgCl2 1, Cs-BAPTA 10, pH 7.2 adjusted with KOH. In some experiments, [Ca^2+]i was buffered to […] by 10 mM BAPTA and appropriate concentrations of CaCl2 or left unbuffered. For inside-out single-channel recordings, the patch was excised into a similar solution, except that KCl was used instead of K-glutamate. All reagents were purchased from Sigma and dissolved in the standard intracellular solution. […] Capacitive currents and series resistance were determined and corrected before each voltage ramp. […]
(Patch clamp records ionic current or voltage across a cell membrane.)

T1 sequence (Q8TD43 whole entry): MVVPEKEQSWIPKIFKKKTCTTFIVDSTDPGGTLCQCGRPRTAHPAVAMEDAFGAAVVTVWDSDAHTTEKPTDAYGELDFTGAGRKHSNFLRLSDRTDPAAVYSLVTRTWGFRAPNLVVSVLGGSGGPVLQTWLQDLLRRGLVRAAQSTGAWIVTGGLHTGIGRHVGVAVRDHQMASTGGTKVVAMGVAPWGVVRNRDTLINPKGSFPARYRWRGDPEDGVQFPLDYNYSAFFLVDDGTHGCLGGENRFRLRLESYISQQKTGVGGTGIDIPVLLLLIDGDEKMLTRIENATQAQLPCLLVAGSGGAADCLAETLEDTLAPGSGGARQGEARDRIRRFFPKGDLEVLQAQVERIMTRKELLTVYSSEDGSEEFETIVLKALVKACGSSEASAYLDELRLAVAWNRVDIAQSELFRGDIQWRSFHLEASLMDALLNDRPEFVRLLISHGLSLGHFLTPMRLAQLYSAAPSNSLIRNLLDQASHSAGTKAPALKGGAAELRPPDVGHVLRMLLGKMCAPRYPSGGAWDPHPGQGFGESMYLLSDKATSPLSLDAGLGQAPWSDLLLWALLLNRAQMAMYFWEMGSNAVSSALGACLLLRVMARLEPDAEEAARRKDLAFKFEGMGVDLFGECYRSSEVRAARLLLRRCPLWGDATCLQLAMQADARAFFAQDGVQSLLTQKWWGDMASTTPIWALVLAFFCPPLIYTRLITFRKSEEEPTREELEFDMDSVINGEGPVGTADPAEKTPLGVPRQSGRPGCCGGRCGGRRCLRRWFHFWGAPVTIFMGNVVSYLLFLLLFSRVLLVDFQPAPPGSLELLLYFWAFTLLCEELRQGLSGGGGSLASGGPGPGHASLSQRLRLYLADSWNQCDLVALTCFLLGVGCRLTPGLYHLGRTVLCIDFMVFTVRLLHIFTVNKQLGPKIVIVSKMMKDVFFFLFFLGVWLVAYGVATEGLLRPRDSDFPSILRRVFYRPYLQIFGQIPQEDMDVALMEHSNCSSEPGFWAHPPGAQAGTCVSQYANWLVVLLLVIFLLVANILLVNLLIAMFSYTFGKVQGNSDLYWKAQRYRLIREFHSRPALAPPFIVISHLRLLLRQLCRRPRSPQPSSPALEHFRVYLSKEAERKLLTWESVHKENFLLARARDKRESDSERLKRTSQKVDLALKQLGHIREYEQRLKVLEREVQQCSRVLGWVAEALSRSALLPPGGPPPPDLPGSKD

For `[Ca+2]` [Ca^2+], the “Ca^2+ concentration at which direct gating of the TRPM4b channel appears to begin” value is on record as approximately 300 nM.
